Experimental data from the supplement of paper PMC10307832.

Legend:
Experiment in all cases: relative viability (nuclei count vs DMSO), 5 days (fraction); higher = more cells survive
[1] = compound: C1CC1C(=O)NC2=NNC3=C2C=CC(=C3)C4=CC(=CC=C4)C(=O)NC5CC5 [XMD13-2]
Outline: (§1)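 Five library-drug doses, separated by factors of √10, were pinned into 1536-well plates holding lung cancer cell lines after an overnight stay at 37 °C. Cells were fixed, permeabilised and Hoechst-stained in one step after 5 days without medium change, then imaged at 4×. Viability compares treated-well with vehicle-well nuclei, counted in MetaXpress, as a median across plates. Passing plates had control CV below 25% and at least one doubling.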

[2] = compound: Cc1ccc(C(=O)Nc2cccc(C(F)(F)F)c2)cc1Nc1cncc(C(N)=O)c1 [ALW-II-49-7]
Outline: as §1

[3] = compound: Cc1nc(Nc2ncc(C(=O)Nc3c(C)cccc3Cl)s2)cc(N2CCN(CCO)CC2)n1 [Dasatinib]
Outline: as §1

With UMC-11 the relative viability ([1]; 0.05 µM) was 1.12, the relative viability ([1]; 0.1581 µM) was 0.945 and the relative viability ([1]; 0.5 µM) was 0.993. For the same cell line, the relative viability ([1]; 1.581 µM) was 0.887, the relative viability ([1]; 5 µM) was 1.01 and the relative viability ([2]; 0.08 µM) was 1.01. For the same cell line, the relative viability ([2]; 0.253 µM) was 1.02, the relative viability ([2]; 0.8 µM) was 0.975 and the relative viability ([2]; 2.53 µM) was 1.02. For the same cell line, the relative viability ([2]; 8 µM) was 1.01, the relative viability ([3]; 0.005 µM) was 0.916 and the relative viability ([3]; 0.01581 µM) was 0.801. The relative viability ([3]; 0.05 µM) was 0.63, the relative viability ([3]; 0.075 µM, anchor plate) was 0.479 and the relative viability ([3]; 0.1581 µM) was 0.415. For the same cell line, the relative viability ([3]; 0.5 µM) was 0.37.
